Assay results taken from patent US20150126475A1, “PESTICIDAL COMPOSITION AND METHOD FOR CONTROLLING PESTS” (priority 2012, published 2015).

Experiments:
Format in all cases: in vivo
common cutworm = experiment: Control of common cutworm larvae on leaf of cabbage grown in treated soil (Test Example 3); conditions: second-instar larvae, 4th day
From the text: (§1) Control value(%)=(1−(number of parasites in treated area)/(number of parasites in non-treated area))×100
Sand soil having sand, non-sterilized soil and sterilized soil mixed in a volume ratio of 1:1:1 was put into a 1/500,000 ha pot, and predetermined amounts of test compounds were sufficiently mixed. Seedlings of cabbage (cultivar: Okina) in 3-leaf stage were transplanted and grown in a greenhouse for 11 days. Then, the fourth leaf of the cabbage was cut, and 10 second-instar larvae of common cutworm were released. On the 4th day, the number of surviving insects was examined, and the control value was determined in the same manner as in Test Example 2. The test was carried out by three replications. Further, theoretical values determined by the Colby's formula are shown in brackets ( ) in Table 5. Further, the combination of fosthiazate and imidacloprid was tested as a Comparative Example.

larvae of turnip fly = experiment: Field test, damage to Daikon radish root by larvae of turnip fly (Test Example 4); conditions: 36th day after sowing
Procedure: Granules of fosthiazate and granules of clothianidin were mixed in predetermined active ingredient amounts, and the mixture was spread on the surface of soil of a field and sufficiently mixed by a small rotary. Seeds of Daikon radish were sown, and on the 36th day after sowing, the degree of damage to the root by larvae of turnip fly was examined by degree, and the damage grade was determined in accordance with the following formula. Further, theoretical values determined by the Colby's formula are shown in brackets ( ) in Table 6. Further, the combination of granules of fosthiazate and granules of imidacloprid was tested as a Comparative Example.
Degree of damage (nil: 0, low: 1, middle: 2, high: 3, enormous: 4)
Damage grade={Σ(damage grade index×number of Daikon radish investigated at each degree of damage)/(total number investigated×4)}×100

[1] = system: southern root-knot nematode (Meloidogyne incognita); experiment: Root knot index on tomato in pots with soil contaminated with southern root-knot nematode (Test Example 1); set-up: key: visual root knot index, 0 to 100%; conditions: non-treated = 100
Procedure: 1 Liter of sand soil having paddy soil sterilized by steam and sand mixed in a volume ratio of 1:1 was put into a 1/1,000,000 ha pot, and a predetermined amount of a test compound was added and mixed. Immediately after addition of the compound, 500 mL of soil contaminated with southern root-knot nematode (Meloidogyne incognita) was put in each pot and sufficiently mixed, and then seedling of tomato (cultivar: yellow pear) were transplantated. On the 33rd to 35th day after transplantation, the root knot index (0 to 100%) formed by nematode was visually determined. The test was carried out by two replications.
Further, theoretical values determined by the Colby's formula are shown in brackets ( ) in Tables.

two-spotted spider mite = experiment: Control of two-spotted spider mite on eggplant seedlings in pots (Test Example 2); conditions: 14th day after treatment
Procedure: 1 Liter of sand soil having paddy soil sterilized by steam and sand mixed in a volume ratio of 1:1 was put into a 1/1,000,000 ha pot, and a predetermined amount of a test compound was added and mixed. Seedlings of eggplant (cultivar: Senryo No. 2) in which 30 adults of two-spotted spider mite (greenish yellow) were parasitic were transplanted and grown in a greenhouse for 5 days, and a test compound was applied to each pot. On the 14th day after treatment, the number of two-spotted spider mite parasitic in each pot was examined. The test was carried out by three replications. The test results are shown in Table 4 by the control value (%). Further, theoretical values determined by the Colby's formula are shown in brackets ( ) in Table 4.
Further, the control value (%) was calculated in accordance with the following formula.
as §1

[2] = single compound granules 500 g a.i/ha
[3] = single compound granules 750 g a.i/ha
[4] = single compound granules 1000 g a.i/ha
[5] = Table 2, single compound 500 g a.i./ha
[6] = Table 1, single compound 5000 g a.i./ha, tomato, 33rd to 35th day
[7] = Table 3, single compound 5000 g a.i./ha

## O=[N+]([O-])NC1=NCCN1Cc1ccc(Cl)nc1 [Imidacloprid, imidacloprid]
Common cutworm; single compound 156 g a.i/ha
  Control value: 6.7%
Common cutworm; single compound 313 g a.i/ha
  Control value: 13.3%
Larvae of turnip fly; [2]
  Damage degree: 23.2
Larvae of turnip fly; [3]
  Damage degree: 34.7
Larvae of turnip fly; [4]
  Damage degree: 26.3

## CCOc1ccc([Si](C)(C)CCCc2ccc(F)c(Oc3ccccc3)c2)cc1 [Silafluofen, silafluofen]
[1]; [5]
  Root knot index: 100

## Cc1c(F)c(F)c(COC(=O)[C@@H]2[C@H](/C=C(\Cl)C(F)(F)F)C2(C)C)c(F)c1F (racemic) [Tefluthrin, tefluthrin]
[1]; [5]
  Root knot index: 100

## CN1COCN(Cc2cnc(Cl)s2)/C1=N\[N+](=O)[O-] [thiamethoxam]
[1]; [6]
  Root knot index: 95.7

## O=C(NC(=O)c1c(F)cccc1F)Nc1ccc(Oc2ccc(C(F)(F)F)cc2Cl)cc1F [Flufenoxuron, flufenoxuron]
[1]; [7]
  Root knot index: 100

## CN/C(=N/CC1CCOC1)N[N+](=O)[O-] (stereo not shown) [dinotefuran]
[1]; [6]
  Root knot index: 97.6

## CN/C(=N\[N+](=O)[O-])NCc1cnc(Cl)s1 [clothianidin]
Common cutworm; single compound 156 g a.i/ha
  Control value: 3.3%
Common cutworm; single compound 313 g a.i/ha
  Control value: 20.0%
Larvae of turnip fly; [2]
  Damage degree: 20.0
Larvae of turnip fly; [3]
  Damage degree: 25.3
Larvae of turnip fly; [4]
  Damage degree: 0
[1]; [6]
  Root knot index: 99.3
two-spotted spider mite; single compound 400 g a.i/ha
  Control value: 35%
two-spotted spider mite; single compound 800 g a.i/ha
  Control value: 48%
two-spotted spider mite; single compound 1500 g a.i/ha
  Control value: 22%

## CCOP(=O)(SC(C)CC)N1CCSC1=O (stereo not shown) [fosthiazate]
Common cutworm; single compound 6000 g a.i/ha
  Control value: 73.3%
Larvae of turnip fly; single compound granules 6000 g a.i/ha, Daikon radish field
  Damage degree: 33.7
[1]; Table 1, single compound 750 g a.i./ha, soil mixing, tomato, 33rd to 35th day
  Root knot index: 35.4
[1]; Table 2, single compound 750 g a.i./ha
  Root knot index: 22.0
[1]; Table 2, single compound 1500 g a.i./ha
  Root knot index: 5.0
[1]; Table 3, single compound 750 g a.i./ha
  Root knot index: 15.8
two-spotted spider mite; single compound 6000 g a.i/ha
  Control value: 98%

## O=C(NC(=O)c1c(F)cccc1F)Nc1cc(Cl)c(Oc2ncc(C(F)(F)F)cc2Cl)c(Cl)c1 [Chlorfluazuron, chlorfluazuron]
[1]; [7]
  Root knot index: 100

## O=C(NC(=O)c1c(F)cccc1F)Nc1cc(Cl)c(F)c(Cl)c1F [Teflubenzuron, teflubenzuron]
[1]; [7]
  Root knot index: 100
